The results in this text go back to patent publication US10414765B2, “Substituted perhydropyrrolo[3,4-c]pyrrole derivatives and the use of same” (BAYER PHARMA AKTIENGESELLSCHAFT, priority 2015, dated 2019).

Common to all, as to format: cell-based
The target of test [1] is T1, human TASK-3 (Homo sapiens (Human), UniProt Q9NPC2). The experiment in a line: Two-electrode voltage clamp of human TASK-3 channels expressed in Xenopus laevis oocytes. As to the method:
(§1) B-1. In Vitro Electrophysiological Analysis of the Human TASK-1 and TASK-3 Channels Via Two-Electrode Voltage Clamp Technique in Xenopus laevis Oocytes
(§2) Xenopus laevis oocytes were selected as described elsewhere by way of illustration [Decher et al., FEBS Lett. 492, 84-89 (2001)]. Subsequently, the oocytes were injected with 0.5-5 ng of a cRNA solution coding for TASK-1 or TASK-3. For the electrophysiological analysis of the channel proteins expressed in the oocytes, the two-electrode voltage clamp technique [Stiihmer, Methods Enzymol. 207, 319-339 (1992)] was used. The measurements were conducted as described [Decher et al., FEBS Lett. 492, 84-89 (2001)] at room temperature (21-22° C.) using a Turbo TEC 10CD amplifier (NPI), recorded at 2 kHz and filtered with 0.4 kHz. Substance administration was performed using a gravitation-driven perfusion system. Here, the oocyte is located in a measuring chamber and exposed to the solution stream of 10 ml/min. The level in the measuring chamber is monitored and regulated by sucking off the solution using a peristaltic pump.
In general terms: Two-electrode voltage clamp is typically applied to oocytes expressing channels or transporters.

Test [2] deals with T1, human TASK-3. The experiment in a line: Inhibition of recombinant TASK-3 in stably transfected CHO cells (voltage-sensitive dye, 40 mM KCl depolarization). As to conditions: 40 mM potassium chloride. As to the method:
(§3) B-2. Inhibition of Recombinant TASK-1 and TASK-3 In Vitro
(§4) The investigations on the inhibition of the recombinant TASK-1 and TASK-3 channels were conducted using stably transfected CHO cells. The compounds according to the invention were tested in this case by application of 40 mM potassium chloride in the presence of a voltage-sensitive dye according to the methods described in detail in the following references [Whiteaker et al., Validation of FLIPR membrane potential dye for high-throughput screening of potassium channel modulators, J. Biomol. Screen. 6 (5), 305-312 (2001); Molecular Devices FLIPR Application Note: Measuring membrane potential using the FLIPR® membrane potential assay kit on Fluorometric Imaging Plate Reader (FLIPR®) systems, http://www.moleculardevices.com/reagents-supplies/assay-kits/ion-channels/flipr-membrane-potential-assay-kits]. The activity of the test substances was determined as their ability to inhibit a depolarization induced in the recombinant cells by 40 mM potassium chloride. The concentration which can block half of this depolarization is referred to as IC50.

The target of test [3] is T2, human TASK-1 (Homo sapiens (Human), UniProt O14649). The experiment in a line: Inhibition of recombinant TASK-1 in stably transfected CHO cells (voltage-sensitive dye, 40 mM KCl depolarization). The conditions noted are these: 40 mM potassium chloride. On the procedure:
as §3, §4

In test [4] the target is T2, human TASK-1. In words: Two-electrode voltage clamp of human TASK-1 channels expressed in Xenopus laevis oocytes. On the procedure:
as §1, §2

T2 sequence (O14649 whole entry): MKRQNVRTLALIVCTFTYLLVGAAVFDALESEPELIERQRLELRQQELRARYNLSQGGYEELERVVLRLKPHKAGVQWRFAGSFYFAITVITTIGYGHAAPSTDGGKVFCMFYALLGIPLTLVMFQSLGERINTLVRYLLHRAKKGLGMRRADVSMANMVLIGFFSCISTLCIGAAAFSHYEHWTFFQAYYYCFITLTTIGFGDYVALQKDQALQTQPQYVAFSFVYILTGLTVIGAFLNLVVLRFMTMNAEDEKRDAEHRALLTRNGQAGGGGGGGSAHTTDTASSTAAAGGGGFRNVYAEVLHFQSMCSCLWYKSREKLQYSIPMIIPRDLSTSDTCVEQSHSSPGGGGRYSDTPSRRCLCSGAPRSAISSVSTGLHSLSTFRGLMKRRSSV
T1 sequence (Q9NPC2 whole entry): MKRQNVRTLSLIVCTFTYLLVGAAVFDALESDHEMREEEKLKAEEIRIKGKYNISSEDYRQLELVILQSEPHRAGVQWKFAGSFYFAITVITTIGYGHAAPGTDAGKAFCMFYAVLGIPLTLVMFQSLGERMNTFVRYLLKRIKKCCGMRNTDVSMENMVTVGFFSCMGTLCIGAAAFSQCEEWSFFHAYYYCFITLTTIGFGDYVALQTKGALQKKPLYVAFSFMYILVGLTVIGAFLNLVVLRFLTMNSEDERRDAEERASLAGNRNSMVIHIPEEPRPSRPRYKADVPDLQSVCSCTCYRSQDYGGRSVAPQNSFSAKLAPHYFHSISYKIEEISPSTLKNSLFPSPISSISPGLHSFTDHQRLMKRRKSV

Consider `COc1cccc(C(=O)N2CC3CN(Cc4c(-c5ccc(Br)cc5)nc5ccccn45)CC3C2)c1` (stereo not shown) [Example 10], for which the IC50 is 970 ± 220 nM at human TASK-3 [1], 485 nM at human TASK-3 [2], 206 nM at human TASK-1 [3] and 31.2 ± 1.7 nM against human TASK-1 [4].
As to `COc1cccc(C(=O)N2CC3CN(Cc4c(-c5ccc(C(C)C)cc5)nc5ccccn45)CC3C2)n1` (stereo not shown) [Example 25], the IC50 at human TASK-3 [1] was 44.1 ± 5.8 nM; on human TASK-3 [2], 410 nM; on human TASK-1 [3], 230 nM; on human TASK-1 [4], 62.2 ± 7.9 nM.
As to `O=C(c1ccccc1)N1CC2CN(Cc3c(-c4ccc(Cl)cc4)nc4ccc(-c5ccccc5)cn34)CC2C1` (stereo not shown) [comparative compound, reference compound], at human TASK-3 [1], the “TASK-3 IC50” value is “inactive”. For the same compound, the inhibition at 1 µM on human TASK-3 [1] (1 μM) was 5.6 ± 1.3%; on human TASK-1 [4] (1 μM) it was 11.4 ± 1.5%. Besides, the inhibition at 10 µM was found to be 8.9 ± 0.9% at human TASK-3 [1] (10 μM) and 37.2 ± 7.5% against human TASK-1 [4] (10 μM). The compound further returned an IC50 at human TASK-1 [4] of over 10000 nM.
Take `COc1cccc(C(=O)N2CC3CN(Cc4c(-c5ccc(Cl)cc5)nc5ccccn45)CC3C2)c1` (stereo not shown) [Example 17]: the IC50 against human TASK-3 [1] is 21.8 ± 2.2 nM; on human TASK-3 [2] it was 1900 nM; at human TASK-1 [3], 721 nM; at human TASK-1 [4], 9.3 ± 2.5 nM.
For `COc1cccc(C(=O)N2CC3CN(Cc4c(-c5ccc(Cl)cc5)nc5ccccn45)CC3C2)n1` (stereo not shown) [Example 4, [5-{[2-(4-Chlorophenyl)imidazo[1,2-a]pyridin-3-yl]methyl}hexahydropyrrolo[3,4-c]pyrrol-2(1H)-yl](6-methoxypyridin-2-yl)methanone], in that order: 256 ± 48.8 nM, 2300 nM, 947 nM and 59.9 ± 16.2 nM.

By IC50 is commonly meant the point on the concentration scale where inhibition reaches its midpoint. By inhibition is commonly meant the share of the control response that was lost under treatment.
